Several values for one entry are separate records, joined by “and”; a condition that tells them apart may be missing. Equal values may be shown once. Activity calls are given as the source filed them.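 The calls were made as follows: active = protection of heart cells from peroxide damage with half-maximal concentration of 20 µM or lower (some results past the limit were not filed as active); inactive = the rest.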
Test system: HL-1 cardiomyocytes, H2O2 injury, ATPLite viability, 2 h
Assay: protection of HL-1 cardiomyocytes from peroxide, SAR follow-up, HL-1 cells, set 2 (AID 624460)

Row | Structure (SMILES) | EC50
1 | CCN(CC(=O)Nc1ccc(F)cc1)C(=O)c1cc(-c2cccs2)nn1-c1ccccc1 | > 79 µM (inactive)
2 | COc1cc(-c2cc(C(=O)Nc3cccc(C(C)=O)c3)c3ccccc3n2)cc(OC)c1OC | 1.47 µM and 8.54 µM
3 | COc1ccc2c(c1OC)C(=O)N1c3ccccc3C(=O)N(c3cccc(C(F)(F)F)c3)C21 (stereo not drawn) | > 79 µM (inactive)
4 | COc1cccc(N2C(=O)c3ccccc3N3C(=O)c4ccccc4C23)c1 (stereo not drawn) | > 79 µM (inactive)
5 | COc1ccc2c(c1OC)C(=O)N1c3ccccc3C(=O)N(c3cccc(F)c3)C21 (stereo not drawn) | 34.7 µM (inactive)
6 | CC(=O)c1cccc(NC(=O)c2cc(-c3ccccc3)nc3ccccc23)c1 | > 79 µM (inactive)
7 | COc1ccc(-c2cc(C(=O)Nc3cccc(C(C)=O)c3)c3ccccc3n2)cc1OC | > 79 µM (inactive)
8 | O=C1c2ccccc2N2C(=O)c3ccccc3C2N1c1cccc(Br)c1 (stereo not drawn) | > 79 µM (inactive)
9 | COc1ccc(N2C(=O)c3ccccc3N3C(=O)c4c(ccc(OC)c4OC)C23)cc1 (stereo not drawn) | 23.5 µM (inactive)
10 | COc1cccc(N2C(=O)c3ccccc3N3C(=O)c4c(ccc(OC)c4OC)C23)c1 (stereo not drawn) | > 79 µM (inactive)
11 | COc1ccc2c(c1OC)C(=O)N1c3ccccc3C(=O)N(c3cccc(Cl)c3)C21 (stereo not drawn) | > 79 µM (inactive)
12 | COc1cc(-c2cc(C(=O)Nc3cccc(C)c3)c3ccccc3n2)cc(OC)c1OC | > 79 µM (inactive)
13 | COc1cccc(CNC(=O)c2cc(-c3cc(OC)c(OC)c(OC)c3)nc3ccccc23)c1 | 10.7 µM (inactive)
14 | COc1ccc(NC(=O)c2cc(-c3cc(OC)c(OC)c(OC)c3)nc3ccccc23)cc1 | 10.2 µM (inactive)
15 | COc1ccc2c(c1OC)C(=O)N1c3ccccc3C(=O)N(c3ccc(C(C)(C)C)cc3)C21 (stereo not drawn) | > 79 µM (inactive)
16 | COc1ccc2c(c1OC)C(=O)N1c3ccccc3C(=O)N(c3ccccc3)C21 (stereo not drawn) | > 79 µM (inactive)
17 | COc1ccc2c(c1OC)C(=O)N1c3ccccc3C(=O)N(Cc3cccc(Cl)c3)C21 (stereo not drawn) | > 79 µM (inactive)
18 | COc1cccc(NC(=O)c2cc(-c3cc(OC)c(OC)c(OC)c3)nc3ccccc23)c1 | 9.39 µM
19 | CCOC(=O)c1cccc(NC(=O)c2cc(-c3cc(OC)c(OC)c(OC)c3)nc3ccccc23)c1 | 3.15 µM

Row | Structure (SMILES) | EC50
20 | COc1ccc2c(c1OC)C(=O)N1c3ccccc3C(=O)N(Cc3ccccc3Cl)C21 (stereo not drawn) | > 79 µM (inactive)
21 | COc1cccc(-c2cc(C(=O)Nc3cccc(C(C)=O)c3)c3ccccc3n2)c1 | > 79 µM (inactive)
22 | COc1ccc(-c2cc(C(=O)Nc3cccc(C(C)=O)c3)c3ccccc3n2)cc1 | > 79 µM (inactive)
23 | CCN(CC(=O)Nc1ccc(OC)cc1)C(=O)c1cc(-c2cccs2)nn1-c1ccccc1 | 70.2 µM (inactive) and > 79 µM (inactive)
24 | COc1cc(-c2cc(C(=O)Nc3cccc(C(C)=O)c3)c3cc(Cl)ccc3n2)cc(OC)c1OC | 3.26 µM
25 | O=C1c2ccccc2N2C(=O)c3ccccc3C2N1c1ccccc1 (stereo not drawn) | > 79 µM (inactive)
26 | CCN(CC(=O)Nc1ccc(OC)cc1)C(=O)c1cc(-c2cc(OC)c(OC)c(OC)c2)nc2ccccc12 | 9.39 µM
27 | COc1cc(-c2cc(C(=O)Nc3ccc(C(C)=O)cc3)c3ccccc3n2)cc(OC)c1OC | 9.93 µM
28 | COc1cc(-c2cc(C(=O)Nc3cccc(C(F)(F)F)c3)c3ccccc3n2)cc(OC)c1OC | > 79 µM (inactive)
29 | COc1cc(-c2cc(C(=O)Nc3ccccc3)c3ccccc3n2)cc(OC)c1OC | > 79 µM (inactive)
30 | COc1cc(-c2cc(C(=O)Nc3cccc(Cl)c3)c3ccccc3n2)cc(OC)c1OC | > 79 µM (inactive)
31 | COc1ccc2c(c1OC)C(=O)N1c3ccccc3C(=O)N(c3ccc(Br)cc3)C21 (stereo not drawn) | > 79 µM (inactive)
32 | COc1ccc2c(c1OC)C(=O)N1c3ccccc3C(=O)N(c3cccc(C)c3)C21 (stereo not drawn) | 60.3 µM (inactive)
33 | COc1ccc2c(c1OC)C(=O)N1c3ccccc3C(=O)N(c3cccc(Br)c3)C21 (stereo not drawn) | 3.29 µM and > 79 µM (inactive)
34 | COc1cccc(CNC(=O)c2cc(-c3ccc(OC)c(OC)c3)nc3ccccc23)c1 | 10.6 µM (inactive)
35 | CCN(CC(=O)Nc1ccc(C)cc1)C(=O)c1cc(-c2cccs2)nn1-c1ccccc1 | > 79 µM (inactive)
36 | COc1cc(-c2cc(C(=O)Nc3cccc(F)c3)c3ccccc3n2)cc(OC)c1OC | 16.4 µM (inactive)
37 | COc1ccc2c(c1OC)C(=O)N1c3ccccc3C(=O)N(c3ccc(C)cc3)C21 (stereo not drawn) | > 79 µM (inactive)
38 | CCN(CC(=O)Nc1ccccc1)C(=O)c1cc(-c2cccs2)nn1-c1ccccc1 | > 79 µM (inactive)
